# Data taken from US8673265B2, “Carbonylporphyrins and uses thereof” (Brookhaven Science Associates, LLC, priority 2006, dated 2014).
# What was measured:
# EMT-6 mammary carcinomas = assay: Biodistribution (boron concentrations in tissues) in mice bearing EMT-6 carcinomas; assay type: in vivo, BALB/c mice; details: for Average boron concentration, Blood / Average boron concentration, Brain / Average boron concentration, Heart / Average boron concentration, Kidneys / Average boron concentration, Liver / Average boron concentration, Skin (pinna) / Average boron concentration, Spleen / Average boron concentration, Tumor / Average boron concentration, Feces / Average boron concentration, Lungs: 3 i.p. injections over 8 hours
# Experimental: BALB/c mice bearing subcutaneously implanted EMT-6 mammary carcinomas implanted on the dorsal thorax were given a total dose of 105 milligrams porphyrin compound V per kilogram body weight (23.7 mg B/kg). At one and two days after the last injection, mice were euthanized, and tumor, blood, brain, and liver were removed for boron analyses. The blood was first analyzed for hematologic parameters that indicate toxicity before it was analyzed for boron.
# Similar to Example 8, Compound VII was given, to tumor-bearing mice except at a slightly higher total dose of 143 mg/kg body weight in 3 i.p. injections given over a period of 8 hours.
# [1] = Weight changes and hematologic parameters in mice; assay type: in vivo, BALB/c mice
# [2] = 105 mg/kg (23.7 mg B/kg), 1 day after last injection
# [3] = 105 mg/kg (23.7 mg B/kg), 2 days after last injection
# [4] = 143 mg/kg (30 mg B/kg), 1 day after last injection
# [5] = 143 mg/kg (30 mg B/kg), 2 days after last injection
substance,measurement,setting,value
"Copper (II) 5,15-dinitro-10,20-bis(3-[o-carboranylmethoxy]phenyl)porphyrin [Porphyrin compound V]","Average boron concentration, Blood",EMT-6 mammary carcinomas; [2],34.6 ± 26.9 μg B/g
same,"Average boron concentration, Brain",EMT-6 mammary carcinomas; [2],0.5 ± 0.4 μg B/g
same,"Average boron concentration, Heart",EMT-6 mammary carcinomas; [2],9.1 ± 3.8 μg B/g
same,"Average boron concentration, Kidneys",EMT-6 mammary carcinomas; [2],12.7 ± 6.9 μg B/g
same,"Average boron concentration, Liver",EMT-6 mammary carcinomas; [2],145 ± 18 μg B/g
same,"Average boron concentration, Skin (pinna)",EMT-6 mammary carcinomas; [2],3.6 ± 13.0 μg B/g
same,"Average boron concentration, Spleen",EMT-6 mammary carcinomas; [2],76.1 ± 8.6 μg B/g
same,"Average boron concentration, Tumor","EMT-6 mammary carcinomas; 105 mg/kg (23.7 mg B/kg), 1 day after last injection, wet tissue",39.2 ± 14.4 μg B/g
same,"Average boron concentration, Blood",EMT-6 mammary carcinomas; [3],1.5 ± 0.4 μg B/g
same,"Average boron concentration, Brain",EMT-6 mammary carcinomas; [3],0.1 ± 0.1 μg B/g
same,"Average boron concentration, Feces",EMT-6 mammary carcinomas; [3],15.2 ± 20.8 μg B/g
same,"Average boron concentration, Heart",EMT-6 mammary carcinomas; [3],7.5 ± 0.6 μg B/g
same,"Average boron concentration, Kidneys",EMT-6 mammary carcinomas; [3],7.1 ± 0.5 μg B/g
same,"Average boron concentration, Liver",EMT-6 mammary carcinomas; [3],226 ± 25 μg B/g
same,"Average boron concentration, Lungs",EMT-6 mammary carcinomas; [3],8.5 ± 3.0 μg B/g
same,"Average boron concentration, Skin (pinna)",EMT-6 mammary carcinomas; [3],4.8 ± 1.6 μg B/g
same,"Average boron concentration, Spleen",EMT-6 mammary carcinomas; [3],158 ± 19 μg B/g
same,"Average boron concentration, Tumor",EMT-6 mammary carcinomas; [3],49.8 ± 12.9 μg B/g
same,amount of boron delivered to the tumor,EMT-6 mammary carcinomas; porphyrin dose ~100 mg/kg (24 mg/kg B),~50 ppm
same,percentage of injected dose in tumor per gram of wet tissue,"EMT-6 mammary carcinomas; ~100 mg/kg (24 mg/kg B), EMT-6 tumor model",~10.5 %/g
same,% Weight change,[1]; [2],−0.8 ± 1.8%
same,Platelet count,[1]; [2],1349 ± 294 m/m^3
same,White blood count,[1]; [2],9.9 ± 2.6 m/m^3
same,% Weight change,[1]; [3],−1.7 ± 1.7%
same,Platelet count,[1]; [3],515 ± 160 m/m^3
same,White blood count,[1]; [3],11.8 ± 1.8 m/m^3
"copper (II) 5,15-dibromo-10,20-bis(3-[o-carboranylmethoxy]phenyl)porphyrin [Porphyrin compound VII]","Average boron concentration, Blood",EMT-6 mammary carcinomas; [4],105 ± 20 μg B/g
same,"Average boron concentration, Brain",EMT-6 mammary carcinomas; [4],1.9 ± 0.5 μg B/g
same,"Average boron concentration, Feces",EMT-6 mammary carcinomas; [4],11.2 ± 2.3 μg B/g
same,"Average boron concentration, Heart",EMT-6 mammary carcinomas; [4],20.4 ± 4.6 μg B/g
same,"Average boron concentration, Kidneys",EMT-6 mammary carcinomas; [4],38.7 ± 7.0 μg B/g
same,"Average boron concentration, Liver",EMT-6 mammary carcinomas; [4],183 ± 19 μg B/g
same,"Average boron concentration, Lungs",EMT-6 mammary carcinomas; [4],35.8 ± 3.7 μg B/g
same,"Average boron concentration, Skin (pinna)",EMT-6 mammary carcinomas; [4],9.2 ± 1.8 μg B/g
same,"Average boron concentration, Spleen",EMT-6 mammary carcinomas; [4],107 ± 11 μg B/g
same,"Average boron concentration, Tumor",EMT-6 mammary carcinomas; [4],67.1 ± 8.5 μg B/g
same,"Average boron concentration, Blood",EMT-6 mammary carcinomas; [5],12.1 ± 9.7 μg B/g
same,"Average boron concentration, Brain",EMT-6 mammary carcinomas; [5],0.1 ± 0.2 μg B/g
same,"Average boron concentration, Feces",EMT-6 mammary carcinomas; [5],4.9 ± 0.6 μg B/g
same,"Average boron concentration, Heart",EMT-6 mammary carcinomas; [5],9.4 ± 1.1 μg B/g
same,"Average boron concentration, Kidneys",EMT-6 mammary carcinomas; [5],13.0 ± 3.6 μg B/g
same,"Average boron concentration, Liver",EMT-6 mammary carcinomas; [5],263 ± 34 μg B/g
same,"Average boron concentration, Lungs",EMT-6 mammary carcinomas; [5],17.8 ± 6.2 μg B/g
same,"Average boron concentration, Skin (pinna)",EMT-6 mammary carcinomas; [5],7.7 ± 1.7 μg B/g
same,"Average boron concentration, Spleen",EMT-6 mammary carcinomas; [5],160 ± 15 μg B/g
same,"Average boron concentration, Tumor",EMT-6 mammary carcinomas; [5],76.9 ± 14.1 μg B/g
same,% Weight change,[1]; [4],−0.3 ± 1.4%
same,Platelet count,[1]; [4],1461 ± 229 m/m^3
same,White blood count,[1]; [4],8.8 ± 1.3 m/m^3
same,% Weight change,[1]; [5],0.2 ± 2.2%
same,Platelet count,[1]; [5],790 ± 227 m/m^3
same,White blood count,[1]; [5],11.8 ± 1.8 m/m^3
same,toxicity associated with the porphyrin,[1]; 143 mg/kg dose,little if any toxicity
